According to patent US4278678A, “Substituted oxy-cyclohexylacetic acid derivatives” (Kaken Chemical Co., Ltd., priority 1978, dated 1981):
Read-outs that look alike come from different tables or passages of the source.

Key:
[1] = tested on: rats with dietary hyperlipidemia; assay: The antihyperlipidemic activity in rats with dietary hyperlipidemia (Test 1); assay type: in vivo, Wister type male rats; conditions: Rattus norvegicus, cholesterol diet, 100 mg/kg oral once daily for 4 days, 24 hours after administration
Protocol: The antihyperlipidemic activity in rats with dietary hyperlipidemia.
In the tests, Wister type male rats (weight: 140 g) were used in groups of 6 each.
A feed containing 2% of cholesterol, 1% of sodium cholate and 5% of coconut oil was given for 4 days to cause hyperlipidemia.
Each active ingredient was suspended in a 1% aqueous solution of Tween 80 (® polyoxyethylene sorbitane monoalkylate) and the suspension was orally administered in a dose of 100 mg/kg once daily for 4 days starting with the supply of the cholesterol supplemented diet.
After 24 hours from the administration, blood was sampled and the concentration of total cholesterols in blood-plasma was measured by the method described in Clinical chemistry Vol. 22 page 393 (1968) and the concentration of triglyceride (neutral fat) was measured by Fletcher method (Clinica Chimica Acta) Vol. 10 page 451 (1964).
As the active ingredients, the compounds of the invention shown in Table and ethyl-α-(p-chlorophenoxy)-isobutylate having the formula [drawing 25] were used.

[2] = acute toxicity tests in mice (Test 2); conditions: mouse, in vivo; male mice, oral, in olive oil; mortality after 72 hours, area method
Protocol: In the acute toxicity tests, male mice (weight: 22 to 25 g) were used in groups of 10 each.
Each active ingredient was dissolved in olive oil and the solution was orally administrated in a volume corresponding to the body weight.
LD50 was calculated by the area method from the mortal percent after 72 hours from the administration.

[3] = total cholesterol in blood-plasma, read-out: Antihypertipidemic activity (%) Cholesterol
[4] = triglyceride (neutral fat), Fletcher method, read-out: Antihypertipidemic activity (%) Triglyceride

| SMILES | inhibition in vivo at 100 mg/kg [1, 3] | inhibition in vivo at 100 mg/kg [1, 4] | LD50 at 72 h [2] |
| --- | --- | --- | --- |
| CCOC(=O)C(Oc1ccc(C(C)=O)cc1)C1CCCCC1 (stereo not drawn) [Compound 11] | 31.8% | 30.9% | > 3000 mg/kg |
| CCOC(=O)C(Oc1cccc(C(C)=O)c1)C1CCCCC1 (stereo not drawn) [Compound 12] | 14.3% | 11.5% | > 3000 mg/kg |
| CCOC(=O)C(Oc1ccc(Oc2ccc(Cl)cc2)cc1)C1CCCCC1 (stereo not drawn) [Compound 17] | 45.3% | 46.5% | > 3000 mg/kg |
| CCOC(=O)C(Oc1cccnc1)C1CCCCC1 (stereo not drawn) [Compound 2] | 0% | 45% | 2500 mg/kg |
| CCOC(=O)C(Oc1ccc(-c2ccc(Cl)cc2)cc1)C1CCCCC1 (stereo not drawn) [Compound 18] | 43.7% | 40.5% | > 3000 mg/kg |
| CCOC(=O)C(Oc1ccc(-c2ccccc2)cc1)C1CCCCC1 (stereo not drawn) [Compound 6, Ethyl α-(p-phenylphenoxy)α-cyclohexylacetate] | 52.3% | 44% | > 3000 mg/kg |
| CCOC(=O)C(Oc1ccc(C(C)CC)cc1)C1CCCCC1 (stereo not drawn) [Compound 8] | 36.7% | 17.1% | > 3000 mg/kg |
| CCOC(=O)C(Oc1cccc(C)c1)C1CCCCC1 (stereo not drawn) [Compound 13] | 7.9% | 59.7% | > 3000 mg/kg |
| CCOC(=O)C(Oc1ccc(OC)cc1)C1CCCCC1 (stereo not drawn) [Compound 5] | 39% | 8.9% | > 3000 mg/kg |
| CCOC(=O)C(Oc1ccc(CC)cc1)C1CCCCC1 (stereo not drawn) [Compound 14, Ethyl α-(p-ethylphenoxy)α-cyclohexylacetate] | 42.6% | 64.8% | > 3000 mg/kg |
| CCOC(=O)C(Oc1ccc(C(C)(C)c2ccccc2)cc1)C1CCCCC1 (stereo not drawn) [Compound 9] | 40.3% | 28.1% | > 3000 mg/kg |
| CCOC(=O)C(Oc1c(C)cccc1C)C1CCCCC1 (stereo not drawn) [Compound 4] | 38.5% | 0% | > 3000 mg/kg |
| CCOC(=O)C(Oc1cccc(C(F)(F)F)c1)C1CCCCC1 (stereo not drawn) [Compound 1] | 12.1% | 49.3% | 2500 mg/kg |
| CCOC(=O)C(Oc1ccc2c(c1)CCCC2)C1CCCCC1 (stereo not drawn) [Compound 10, Ethyl α-(5,6,7,8-tetrahydro-2-naphthoxy)-α-cyclohexylacetate] | 52.1% | 44.4% | 2500 mg/kg |
| O=C(O)C(Oc1ccc(C2CCCCC2)cc1)C1CCCCC1 (stereo not drawn) [Compound 19, α-(p-cyclohexylphenoxy)α-cyclohexylacetic acid] | 35.8% | 32.4% | > 3000 mg/kg |
| CCOC(=O)C(Oc1ccc(C2CCCCC2)cc1)C1CCCCC1 (stereo not drawn) [Compound 7, Ethyl α-(p-cyclohexylphenoxy)α-cyclohexylacetate] | 42.6% | 51.6% | > 3000 mg/kg |
| CCOC(=O)C(Oc1ccc(Cl)cc1)C1CCCCC1 (stereo not drawn) [Compound 3] | 43.3% | 31.5% | > 3000 mg/kg |
| CCOC(=O)C(Oc1ccc(Oc2ccccc2)cc1)C1CCCCC1 (stereo not drawn) [Compound 16, ethyl α-(p-phenoxyphenoxy)α-cyclohexylacetate] | 40.8% | 38.7% | > 3000 mg/kg |
| CCOC(=O)C(Oc1ccc(Cl)c2ccccc12)C1CCCCC1 (stereo not drawn) [Compound 15] | 0% | 53% | 2500 mg/kg |
